# PubChem BioAssay (NCI)
#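 Compound exposure: 48 hours, 5 concentrations, 96-well plates. TGI: concentration producing complete growth inhibition.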
# Legend:
# Assay in all cases: NCI-60 cell line screen, 48 h
# [1] = tested on: A549 NSCLC
# [2] = tested on: CCRF-CEM leukemia
# [3] = tested on: EKVX NSCLC
# [4] = tested on: HCT-116 colon
# [5] = tested on: HCT-15 colon
# [6] = tested on: HOP-62 NSCLC
# [7] = tested on: LOX IMVI melanoma
# [8] = tested on: MALME-3M melanoma
# [9] = tested on: NCI-H226 lung
# [10] = tested on: NCI-H460 lung
# [11] = tested on: OVCAR-4 ovarian
# [12] = tested on: OVCAR-8 ovarian
# [13] = tested on: SNB-19 CNS
# [14] = tested on: UACC-62 melanoma
# [15] = tested on: DU-145 prostate
# [16] = tested on: KM12 colon
# [17] = tested on: MCF7 breast
# [18] = tested on: PC-3 prostate
# [19] = tested on: HL-60(TB) leukemia
SMILES,TGI [1],TGI [2],TGI [3],TGI [4],TGI [5],TGI [6],TGI [7],TGI [8],TGI [9],TGI [10],TGI [11],TGI [12],TGI [13],TGI [14],TGI [15],TGI [16],TGI [17],TGI [18],TGI [19]
COc1cc2c(c(OC)c1O)-c1ccc(SC)c(=O)cc1C(NC(C)=O)CC2 (stereo not drawn),> 100 µM,> 100 µM,> 100 µM,0.252 µM,> 100 µM,> 100 µM,> 100 µM,> 100 µM,> 16.7 µM,> 11 µM,> 100 µM,> 100 µM,> 100 µM,> 100 µM,,,,,
Nn1c(CCCCCCCCc2nnc(COc3ccc(Cl)cc3Cl)n2N)nnc1COc1ccc(Cl)cc1Cl,> 100 µM,,> 100 µM,86.8 µM,> 100 µM,,,> 100 µM,> 100 µM,> 100 µM,> 100 µM,,> 100 µM,> 100 µM,> 100 µM,> 100 µM,> 100 µM,> 100 µM,
COC1(c2ccc(Cl)cc2)SC=C(C)n2c1noc2=O (stereo not drawn),> 100 µM,> 100 µM,> 100 µM,> 100 µM,> 100 µM,,> 100 µM,> 100 µM,,> 100 µM,> 100 µM,,> 100 µM,> 100 µM,> 100 µM,> 100 µM,> 100 µM,> 100 µM,> 100 µM
Cc1c2n(c(=O)[nH]c1=O)C1OC(CO)C(O2)C1N=[N+]=[N-] (stereo not drawn),> 100 µM,> 100 µM,> 100 µM,> 100 µM,> 100 µM,> 100 µM,> 100 µM,,> 100 µM,> 100 µM,> 100 µM,> 100 µM,> 100 µM,> 100 µM,,> 100 µM,,,> 100 µM
N/C(=N\N=C/c1ccc(O)c(O)c1O)NO,> 100 µM,> 58.1 µM,> 100 µM,> 59.6 µM,34.5 µM,> 56.4 µM,33.9 µM,> 100 µM,> 77 µM,32.4 µM,25.5 µM,> 54.1 µM,> 100 µM,41.5 µM,,72.5 µM,32.9 µM,,41.4 µM
Cc1ccc(-c2n[nH]c(Cc3nc(-c4ccc(C)cc4)n[nH]3)n2)cc1,> 100 µM,> 100 µM,> 100 µM,> 100 µM,> 100 µM,> 100 µM,> 100 µM,,,,> 100 µM,> 100 µM,> 100 µM,> 100 µM,> 100 µM,> 100 µM,> 100 µM,> 100 µM,
C[n+]1c2ccccc2c(NCC(=O)O)c2ccccc21,> 100 µM,,> 100 µM,> 100 µM,> 100 µM,> 100 µM,,> 100 µM,> 100 µM,> 100 µM,> 100 µM,> 100 µM,> 100 µM,> 100 µM,,> 100 µM,,,> 100 µM
S=C1NCCN1,> 100 µM,> 100 µM,> 100 µM,> 100 µM,> 100 µM,> 100 µM,> 100 µM,> 100 µM,> 100 µM,,> 100 µM,> 100 µM,> 100 µM,> 100 µM,,> 100 µM,,,> 100 µM
CC1(C)CCc2ccc(OCCC(=O)O)cc2O1,> 100 µM,> 100 µM,> 100 µM,> 100 µM,> 100 µM,> 100 µM,> 100 µM,> 100 µM,> 100 µM,> 100 µM,> 100 µM,> 100 µM,,> 100 µM,,> 100 µM,,,> 100 µM
CCCCCCNC(=O)C(C)C1CCC2(C)C=CC(=O)C(C)=C2C1O (stereo not drawn),> 100 µM,> 100 µM,> 100 µM,> 100 µM,> 100 µM,> 100 µM,> 100 µM,,> 100 µM,> 100 µM,> 100 µM,> 100 µM,> 100 µM,> 100 µM,,> 100 µM,> 100 µM,,> 100 µM
O=C1N(Cl)C(=O)C(c2ccc(Cl)cc2)(c2ccc(Cl)cc2)N1Cl,> 100 µM,60.9 µM,> 100 µM,> 100 µM,> 100 µM,,,> 100 µM,> 100 µM,> 100 µM,> 100 µM,> 100 µM,> 100 µM,,,> 100 µM,,,> 100 µM
COc1cc(NC(C)c2ccc3c(c2)OCCO3)cc(OC)c1OC (stereo not drawn),> 100 µM,,> 100 µM,> 100 µM,> 100 µM,> 100 µM,> 100 µM,67.8 µM,75.6 µM,> 100 µM,> 100 µM,> 100 µM,> 100 µM,> 100 µM,> 100 µM,> 100 µM,> 100 µM,> 100 µM,48.6 µM
CC1=CC(=O)[C@@H](O)[C@]2(C)[C@H]3[C@@]4(O)OC[C@]35[C@H]([C@@H](C)[C@H]4O)[C@@H](OC(=O)C(C)(C)CO)C(=O)O[C@@H]5C[C@@H]12,41.5 µM,,15.1 µM,2.11 µM,3.1 µM,1.63 µM,0.0741 µM,,0.553 µM,0.547 µM,1.9 µM,2.52 µM,0.626 µM,0.86 µM,,0.787 µM,> 100 µM,4.84 µM,> 100 µM
